Source: article PMC9913425, “Pentacyclic Triterpenoids-Based Ionic Compounds: Synthesis, Study of Structure–Antitumor Activity Relationship, Effects on Mitochondria and Activation of Signaling Pathways of Proliferation, Genome Reparation and Early Apoptosis” (Cancers, 2023)
Structures can show the parent of a compound that is named as a salt.

Assays:
HEK293 = experiment: In vitro cytotoxicity, IC50 by flow cytometry (Guava ViaCount); type: cell-based; conditions: conditionally normal
Experimental: (§1) Human cancer cell line HeLa, HL60, A2780 was obtained from the HPA Culture Collections (Salisbury, UK). Cells (Jurkat, K562, U937, Hek293, Fibroblasts) were purchased from Russian Cell Culture Collection (Institute of Cytology of the Russian Academy of Sciences, […], Russia) and cultured according to standard protocols and sterile technique. […] Cells were maintained in RPMI 1640 (Jurkat, K562, U937, HL60) (Gibco, Billings, MT, USA) supplemented with […], 10% FBS (Sigma) and 100 units/mL penicillin–streptomycin (Sigma). All types of cells were grown in an atmosphere of 5% CO2 at 37 °C. The cells were subcultured at 2–3 days intervals. Cells were then seeded in 24-well plates at 5 × 10^4 cells per well and incubated overnight. Jurkat, K562, U937, HL60 cells were subcultured at 2-day intervals with a seeding density of 1 × 10^5 cells per 24-well plates in RPMI with 10% FBS.
(§2) The antitumor activity of the synthesized ionic compounds was initially assessed in vitro on Jurkat, K562, U937, HL60, HEK293, A2780 cell lines, including the determination of IC50 by flow cytometry involving Guava ViaCount (Millipore) reagent kits.

Jurkat = experiment: as above; type: cell-based; conditions: Jurkat cells
Experimental: as §1, §2

K562 = experiment: as above; type: cell-based
Experimental: as §1, §2

U937 = experiment: as above; type: cell-based
Experimental: as §1, §2

A2780 = experiment: as above; type: cell-based, human
Experimental: as §1, §2

HL60 = experiment: as above; type: cell-based, human
Experimental: as §1, §2

Jurkat cells = experiment: Apoptosis/necrosis induction (Annexin V Alexa Fluor488, 7AAD staining); type: cell-based; conditions: compound at IC50 concentration, incubation 2 h
From the text: Multiparametric evaluation of marker molecules, along with the detection of damage to the mitochondrial membrane, makes it possible to clearly determine the type of cell death. The method of cell staining with three different dyes (Annexin V Alexa Fluor488, 7AAD and MitoSense Red) provides simultaneous specification of various aspects of the state of the cell membrane, the state of DNA and the viability of mitochondria; together, it is a reliable sign of intrinsic and mitochondrial apoptosis pathway. Normal cells with intact mitochondrial membranes have high MitoSense Red fluorescence, while cells with decoupled oxidation and phosphorylation have much lower fluorescence. […]
Figure 1 The ratio of the level of mito-damage and the level of apoptosis in Jurkat cells of ionic compounds based on ursolic, oleanolic and betulinic acids.

[1] = tested on: mitochondria of Jurkat tumor cells; experiment: Mitochondrial damage (MitoSense Red staining); type: cell-based; conditions: compound at IC50 concentration, incubation 2 h
Chk1 = experiment: Luminex xMAP DNA Damage/Genotoxicity panel, phosphorylated Chk1; type: cell-based; conditions: Jurkat cells; 12a 0.006 µM, 13d 0.004 µM per 100,000 cells; 6 and 12 h
From the text: [Worded in the source for another target; used here, by the source, with some conditions changed.] (§3) The determination of proteins in a cell by Luminex xMAP technology is characterized by the presence of multiplex multiparametric analysis with the simultaneous use of a multiplex of antibodies with a fluorescent label and magnetic particles, thereby resulting in an increase in the sensitivity of the technique and expansion of the dynamic range, as well as an increase in detection accuracy. Luminex XMAP technology provides a simultaneous analysis of a sufficient number of different proteins in various types of biological fluids (plasma, serum, cerebrospinal fluid, follicular fluid, tissue lysate, etc.) and in cell supernatants. Consequently, multiplexing saves time/costs and ensures the same conditions for the measurements, which is essential for significance and statistical processing.
(§4) Magnetic microspheres (stained inside with two fluorescent dyes) in combination with monoclonal antibodies against the analyzed analytes (the main intracellular kinases in this case) are incubated with the samples and standards; then, the samples/standards are incubated with biotinylated monoclonal antibodies against the analyzed analytes and, finally, with a solution of streptavidin–phycoerythrin. The Luminex technology identifies the different proteins present in each well and converts the mean fluorescence intensity (MFI) of each measured cytokine to pg/mL using software and standard curves. This approach is successfully applied in fundamental and clinical research. In this work, we analyzed various protein analytes that make up the phosphorylated and non-phosphorylated fractions of the main kinases in the signaling pathways: CREB, JNK, NFkB, p38, ERK1/2, Akt, p70S6K, STAT3, STAT5 proteins in six samples of lysates of Jurkat tumor cells by Luminex technology (MILLIPLEX® MAP 9-Plex Multi-Pathway 9-plex Magnetic Bead Kit).

Chk2 = experiment: Luminex xMAP DNA Damage/Genotoxicity panel, phosphorylated Chk2; type: cell-based; conditions: Jurkat cells; 12a 0.006 µM, 13d 0.004 µM per 100,000 cells; 6 and 12 h
From the text: [Worded in the source for another target; used here, by the source, with some conditions changed.] as §3, §4

[2] = Homo sapiens, HEK293, HEK293 cells
[3] = Homo sapiens, U-937, U937 cells
[4] = Homo sapiens, A2780, A2780 cells
[5] = Homo sapiens, HL-60, HL60 cells

melting point [°C] | SMILES | IC50 (HEK293; [2]) [nM] | IC50 (Jurkat; Homo sapiens, Jurkat) [nM] | IC50 (K562; Homo sapiens, K562, K562 cells) [nM] | IC50 (U937; [3]) [nM] | IC50 (A2780; [4]) [nM] | IC50 (HL60; [5]) [nM] | Apoptosis (%) Early (Jurkat cells) [%] | Apoptosis (%) Late (Jurkat cells) [%] | Apoptosis (%) Necrosis (Jurkat cells) [%] | Mito-Damage (%) [1] [%] | percentage of cells in the apoptotic state (Jurkat cells) [%] | IC50 (HEK293; HEK293 cells) [nM] | IC50 (Jurkat) [nM] | IC50 (K562; K562 cells) [nM] | IC50 (U937; U937 cells) [nM] | IC50 (A2780; A2780 cells) [nM] | IC50 (HL60; HL60 cells) [nM] | content of phosphorylated checkpoint kinase Chk1 (Chk1) | content of phosphorylated checkpoint kinase Chk2 (Chk2)
148 to 150 | C[n+]1ccn(CCCCOC(=O)[C@]23CCC(C)(C)CC2C2=CCC4[C@@]5(C)CC[C@H](O)C(C)(C)C5CC[C@@]4(C)[C@]2(C)CC3)c1 (stereo partly drawn) (as salt: bromide) [9b, 1-(4-{[(3β)-3-Hydroxyolean-12-en-28-oyl]oxy}butyl)-3-methylimidazolium bromide] | – | – | – | – | – | – | – | – | – | – | – | – | – | – | – | – | – | – | –
151 to 153 | CC(=O)O[C@H]1CC[C@@]2(C)C(CC[C@]3(C)C2CC=C2C4CC(C)(C)CC[C@]4(C(=O)OCCCCCCn4cc[n+](C)c4)CC[C@]23C)C1(C)C (stereo partly drawn) (as salt: bromide) [9d, 1-(6-{[(3β)-3-Acetyloxyolean-12-en-28-oyl]oxy}hexyl)-3-methylimidazolium bromide] | – | – | – | – | – | – | – | – | – | – | – | – | – | – | – | – | – | – | –
– | CC1(C)CC[C@]2(C(=O)OCCCCCC[N+]3(C)CCCCC3)CC[C@]3(C)C(=CCC4[C@@]5(C)CC[C@H](O)C(C)(C)C5CC[C@]43C)C2C1 (stereo partly drawn) [12b, 1-(6-{[(3β)-3-Hydroxyolean-12-en-28-oyl]oxy}hexyl)-1-methylpiperidinium bromide] | 76 ± 7 | 9 ± 1 | 21 ± 1 | 19 ± 1 | 34 ± 3 | 24 ± 2 | 3.21 | 18.13 | 1.9 | 23.49 | – | – | – | – | – | – | – | – | –
– | CC1(C)CC[C@]2(C(=O)OCCCCCC[N+]3(C)CCCC3)CC[C@]3(C)C(=CCC4[C@@]5(C)CC[C@H](O)C(C)(C)C5CC[C@]43C)C2C1 (stereo partly drawn) [12c, 1-(6-{[(3β)-3-Hydroxyolean-12-en-28-oyl]oxy}hexyl)-1-methylpyrrolidinium bromide] | 81 ± 8 | 11 ± 1 | 24 ± 1 | 21 ± 1 | 39 ± 4 | 27 ± 2 | 0.7 | 33.66 | 0.99 | 74.26 | 35 | – | – | – | – | – | – | – | –
– | CC1(C)CC[C@]2(C(=O)OCCCCCC[N+]3(C)CCOCC3)CC[C@]3(C)C(=CCC4[C@@]5(C)CC[C@H](O)C(C)(C)C5CC[C@]43C)C2C1 (stereo partly drawn) [12d, 4-(6-{[(3β)-3-Hydroxyolean-12-en-28-oyl]oxy}hexyl)-4-methylmorpholinium bromide] | 86 ± 8 | 22 ± 2 | 69 ± 3 | 59 ± 3 | 41 ± 4 | 17 ± 1 | 0.0 | 36.14 | 22.63 | 62.11 | – | – | – | – | – | – | – | – | –
– | CC[N+](CC)(CC)CCCCCCOC(=O)[C@]12CCC(C)(C)CC1C1=CCC3[C@@]4(C)CC[C@H](O)C(C)(C)C4CC[C@@]3(C)[C@]1(C)CC2 (stereo partly drawn) [12e, N,N,N-Triethyl-N-(6-{[(3β)-3-hydroxyolean-12-en-28-oyl]oxy}hexyl)-aminium bromide] | 34 ± 3 | 7 ± 1 | 13 ± 1 | 10 ± 1 | 16 ± 2 | 3 ± 1 | 0.76 | 76.0 | 7.19 | 97.3 | – | – | – | – | – | – | – | – | –
– | CC1(C)CC[C@]2(C(=O)OCCCCCC[N+](C)(C)CCO)CC[C@]3(C)C(=CCC4[C@@]5(C)CC[C@H](O)C(C)(C)C5CC[C@]43C)C2C1 (stereo partly drawn) [12f, N-(2-Hydroxyethyl)-N-(6-{[(3β)-3-hydroxyolean-12-en-28-oyl]oxy}hexyl)-N,N-dimethylaminium bromide] | 26 ± 2 | 17 ± 1 | 49 ± 2 | 42 ± 2 | 15 ± 1 | 11 ± 1 | 0.0 | 30.87 | 54.23 | 86.98 | 85.10 | – | – | – | – | – | – | – | –
– | Cn1cc[n+](CCCCCCOC(=O)C23CCC(C)(C)CC2C2=CCC4C5(C)CCC(O)C(C)(C)C5CCC4(C)C2(C)CC3)c1.[F][Sb-]([F])([F])([F])([F])[F] (stereo not drawn) [13b, 1-(6-{[(3β)-3-Hydroxyolean-12-en-28-oyl]oxy}hexyl)-3-methylimidazolium Hexafluoroantimonate] | – | – | – | – | – | – | 2.35 | 17.49 | 4.68 | 35.72 | – | 39 ± 3 | 9 ± 1 | 12 ± 1 | 10 ± 1 | 21 ± 2 | 3 ± 1 | – | –
– | Cn1cc[n+](CCCCCCOC(=O)[C@]23CCC(C)(C)C[C@H]2C2=CC[C@@H]4[C@@]5(C)CC[C@H](O)C(C)(C)[C@@H]5CC[C@@]4(C)[C@]2(C)CC3)c1.F[P-](F)(F)(F)(F)F [13c, 1-(6-{[(3β)-3-Hydroxyolean-12-en-28-oyl]oxy}hexyl)-3-methylimidazolium Hexafluorophosphate] | – | – | – | – | – | – | 3.62 | 5.20 | 1.78 | 8.32 | – | 32 ± 3 | 8 ± 1 | 7 ± 1 | 5 ± 1 | 14 ± 1 | 3 ± 1 | – | –
– | C[n+]1ccn(CCCCCCOC(=O)[C@]23CCC(C)(C)CC2C2=CCC4[C@@]5(C)CC[C@H](O)C(C)(C)C5CC[C@@]4(C)[C@]2(C)CC3)c1.O=S(=O)([O-])c1ccccc1 (stereo partly drawn) [13e, 1-(6-{[(3β)-3-Hydroxyolean-12-en-28-oyl]oxy}hexyl)-3-methylimidazolium Benzenesulfonate] | – | – | – | – | – | – | 6.26 | 3.12 | 1.52 | 7.71 | – | 46 ± 4 | 11 ± 1 | 17 ± 1 | 14 ± 1 | 24 ± 2 | 4 ± 1 | – | –
– | C=C(C)[C@@H]1CC[C@]2(C(=O)[O-])CC[C@]3(C)[C@H](CC[C@@H]4[C@@]5(C)CC[C@H](O)C(C)(C)[C@@H]5CC[C@]43C)[C@@H]12.CCn1cc[n+](C)c1 [17a, 1-Ethyl-3-methylimidazolium (3β)-3-hydroxyolup-20(29)-en28-oylate] | – | – | – | – | – | – | 2.91 | 1.38 | 3.30 | 8.84 | – | 182 ± 17 | 18 ± 1 | 41 ± 2 | 34 ± 2 | 81 ± 8 | 17 ± 2 | – | –
– | N#CC(C#N)=NNc1cccc(Cl)c1 [CCCP] | – | – | – | – | – | – | – | – | – | – | – | – | – | – | – | – | – | significantly decreases | significantly decreases
134 to 136 | CC(=O)O[C@H]1CC[C@@]2(C)C(CC[C@]3(C)C2CC=C2C4CC(C)(C)CC[C@]4(C(=O)OCCCCCCOC(=O)c4nccn4C)CC[C@]23C)C1(C)C (stereo partly drawn) [compound 3, 6-{[(1-Methyl-1H-imidazol-2-yl)carbonyl]oxy}hexyl (3β)-3-(acetyloxy)olean-12-en-28-oate] | > 4000 | > 4000 | > 4000 | > 4000 | > 4000 | > 4000 | – | – | – | – | – | – | – | – | – | – | – | – | –
